The source of these data is patent publication US20140275090A1, “BILE ACID RECYCLING INHIBITORS FOR TREATMENT OF PRIMARY SCLEROSING CHOLANGITIS AND INFLAMMATORY BOWEL DISEASE” (Lumena Pharmaceuticals, Inc., priority 2013, published 2014).

In data set [1] the test system is plasma lipase, plasma amylase. As to the kind of experiment: ZDF rat 3-week study: exocrine pancreas function (plasma lipase, amylase). The conditions noted are these: ZDF rats; for Plasma Amylase: Week 3; for Plasma Lipase: Week 3, higher doses. The data set is classed as in vivo. The protocol:
(§1) Animals were acclimatized for 5-7 days after arrival.
(§2) Key efficacy, metabolic and liver function parameters were assessed: Total 24 hr fecal and total serum bile acid concentrations; Plasma ALP, ALT, AST, BUN, creatinine; Fasting glucose and insulin concentrations, glucose/insulin ratio, blood percent HbA1c and Oral Glucose Tolerance Test (glucose excursion, insulin, GLP-1); Plasma GLP-1, GLP-2 and FGF21 concentrations.

Data set [2] in a line: Pharmacokinetics of [14C]LUM002 after single PO or IV administration to rats. The data set is classed as in vivo, Sprague Dawley Rat. The method, then:
To each rat either a single oral (PO; 20 mg/kg free acid) or a single intravenous (IV; 2 mg/kg free acid) dose of [^14C]LUM002 was administered. For PO and IV administration, the test substance was prepared with the adequate amount of water to reach a solution with a concentration of approximately 4 mg/g (PO) and 1 mg/g (IV). Oral administration was a gavage using a stomach tube and IV administration was a bolus injection into the tail vein. Exact doses administered to animals were calculated according to syringe weights.
The doses of radioactivity actually administered were determined by using standards prior to and after treatment of the animals. Blood—Animals were anaesthetized (Isoflurane) for blood sampling (3 animals/time point) and then euthanized by […]. Blood samples (maximal volume from each animal approx. 8 mL) were withdrawn from the abdominal aorta into containers containing a small amount of lithium heparin. and samples were centrifuged for 2 minutes at 1540 g. Aliquots (100 μL) of blood were used for hematocrit determination. Animals for the control groups (male and/or female) were used as predose animals for sampling of untreated biological samples (blood and plasma or liver, myocardium, kidneys only from male control animals). Plasma—To obtain plasma, blood samples were centrifuged for 10 minutes and stored cooled before final division.
Bioanalytical analysis −50 μL of plasma samples were placed into an 1.5 mL reaction tube. 5 μL methanol was added to each sample. For protein precipitation, 100 μL of the internal standard working solution (100 ng/mL of benzyl-13C6-LUM002 in acetonitrile) and 50 μL acetonitrile were added. In case of double blank samples, pure acetonitrile was added. Tubes were sealed and mixed thoroughly for 10 seconds. The tubes were centrifuged for 5 minutes at ≧3000 g. 50 μL of the clear supernatant was transferred into an autoinjector vial and were diluted with 50 μL deionized water. Analysis of samples was performed by using LC-MS/MS (injection volume 50-75 μL) with a lower limit of quantification in the assay of 1 ng/mL for LUM002.

The subject of a further data set is GLP-2. As to the kind of experiment: ZDF rat study: GLP-2 in plasma. The conditions noted are these: non-fasted ZDF rats, 2 weeks treatment, higher doses. The class given is in vivo. The protocol:
as §1, §2

Data set [3] can be described thus: Pharmacokinetics of LUM002 single 100 mg oral solution in healthy male subjects. The class given is in vivo, human. The protocol:
Healthy male subjects, from 18 to 45 years of age, were given a single oral solution dose (100 mg in 100 mL) of LUM002 under fasting conditions. Blood samples for the determination of LUM002 plasma concentration were collected predose and 0.5, 1, 2, 3, 4, 5, 6, 8, 10, 12, 16, 24, and 48 hours after treatment administration. Plasma was obtained by centrifugation and […] processed for protein precipitation, centrifuged again to remove the precipitate and the supernatant prepared for LC-MS/MS analysis. LUM002 plasma concentrations were determined using a validated liquid chromatography tandem mass spectrometry (LC-MS/MS) assay with a lower limit of quantification (LLOQ) of 0.1 ng/mL. LUM002 plasma concentrations were used to determine the following pharmacokinetic parameters using standard noncompartmental techniques: Cmax, Tmax, AUCslast, and, if applicable due to the low-absorbable characteristics of LUM002, also AUC, AUC0-24 and t1/2z.

A further data set deals with Hemoglobin A1c (HbA1c). As to the kind of experiment: ZDF rat 3-week study: baseline-corrected percent HbA1c. The data set is classed as in vivo. Conditions: ZDF rats, twice daily oral gavage. The protocol:
as §1, §2

Another data set relates to plasma ALP, ASAT, ALAT. The experiment in a line: ZDF rat 3-week study: liver function (ALP, ASAT, ALAT). The class given is in vivo. Conditions: ZDF rats, twice daily oral gavage, Week 3. The protocol: as §1, §2
Another data set has as its system plasma bile acids. The experiment in a line: Plasma bile acid concentrations in ZDF rats, oral gavage twice a day for 2 weeks. The data set is classed as in vivo, ZDF rat. The protocol:
Male Zucker diabetic fatty rats (ZDF/GmiCrl-fa/fa) were purchased from Charles River (Raleigh, N.C.) and housed under controlled conditions (12:12 light-dark cycle, 24° C. and 50% relative humidity) with free access to rodent food (Purina 5008, Harlan Teklad, Indianapolis, Ind.). All rats arrived at seven weeks of age (±3 days). After a one-week acclimation period, rats were anesthetized with isoflurane (Abbott Laboratories, IL) and tail-vein blood samples were collected at 9 am without fasting. Blood glucose levels were measured using a glucometer (Bayer, Leverkusen, Germany). In order to ensure balanced treatment groups, ZDF rats were assigned to six treatment groups based upon baseline glucose: vehicle (0.5% HPMC, 0.1% Tween80) and five doses of 264W94 (0.001, 0.01, 0.1, 1, 10 mg/kg). […]
(§3) Non-esterified fatty acids (NEFA), bile acids, and bile acids in fecal extraction were measured using the Olympus AU640 clinical chemistry analyzer (Beckman Coulter, Irving, Tex.).
Male ZDF rats (n=4) were administered vehicle, SC-435 (1, 10 or 30 mg/kg) or LUM002 (0.3, 1, 3, 10 or 30 mg/kg) by oral gavage twice a day for 2 weeks. Plasma bile acid levels were determined at the end of the second week. […] Data are expressed as mean values ±SEM.

Data set [4] relates to fecal excretion of [14C]taurocholic acid (TCA). As to the kind of experiment: Fecal excretion of [14C]taurocholic acid in Syrian hamster after LUM002. The conditions noted are these: nonfasted Golden Syrian hamsters, oral gavage, 24 h feces. The class given is in vivo. The protocol: To study the effect of LUM002 on fecal excretion of [^14C]taurocholic acid (TCA) in the Syrian hamster in vivo, [^14C]TCA was administered intraperitoneally 1 hour before dosing the test compound. Each animal was dosed with […] [^14C]TCA. LUM002 was dosed by oral gavage (5 mL/kg per administration) in either 5% (v/v) Solutol with 0.5% hydroxyethylcellulose (HEC) or 0.5% HEC alone. The first half of dose of test compound/vehicle was given 1 hour after [^14C]TCA injection, followed by the second half of dose 7 hours after the first dose of test compound/vehicle. Feces were collected for 24 hours after [^14C]TCA administration and aliquots from feces were combusted for determination of [^14C] excretion.
The ED200 (dose which doubles the fecal excretion of [^14C] label vs. control from dose response curve, including 95% Confidence interval) was calculated from a dose response curve.

The next data set deals with total serum bile acids. The experiment in a line: ZDF rat 3-week study: plasma total serum bile acids. The conditions noted are these: ZDF rats, twice daily oral gavage, Week 3. The class given is in vivo. The protocol: as §1, §2
The next data set has as its system fecal bile acids. As to the kind of experiment: Fecal bile acid excretion in ZDF rats after oral 264W94. The class given is in vivo, ZDF rat. The conditions noted are these: 0.001-10 mg/kg oral gavage twice a day, 2 weeks. The method, then:
Male Zucker diabetic fatty rats (ZDF/GmiCrl-fa/fa) were purchased from Charles River (Raleigh, N.C.) and housed under controlled conditions (12:12 light-dark cycle, 24° C. and 50% relative humidity) with free access to rodent food (Purina 5008, Harlan Teklad, Indianapolis, Ind.). All rats arrived at seven weeks of age (±3 days). After a one-week acclimation period, rats were anesthetized with isoflurane (Abbott Laboratories, IL) and tail-vein blood samples were collected at 9 am without fasting. Blood glucose levels were measured using a glucometer (Bayer, Leverkusen, Germany). In order to ensure balanced treatment groups, ZDF rats were assigned to six treatment groups based upon baseline glucose: vehicle (0.5% HPMC, 0.1% Tween80) and five doses of 264W94 (0.001, 0.01, 0.1, 1, 10 mg/kg). All treatments were given via oral gavage twice a day and animals were followed for two weeks with blood samples collected from tail vein at the end of each week at 9 am without fasting. Fecal samples were collected for 24 hours during the second week of treatment.
as §3

Data set [5] deals with liver injury after partial bile duct ligation. As to the kind of experiment: Partial bile duct ligation (pBDL) in rats: liver histology and cholangiocyte mitotic figures. The class given is in vivo, rat. The conditions noted are these: for Total number of cholangiocytes in 50 fields / Total number of mitotic figures in 50 fields: pBDL rat, 10 mg/kg once daily oral gavage. The method, then:
Rats were anesthetized with isoflurane, the common bile duct exposed by midline laparotomy and a short length of PE-10 tubing placed parallel to the bile duct. A ligature of 4-0 silk suture was tied tightly around the duct and tubing after which the tubing was removed resulting in constriction of the duct lumen without complete obstruction SC-435 was administered to the test group by once daily oral gavage (10 mg/kg) starting one day prior to pBDL surgery.
All animals were euthanized on Day 14. The liver was collected from all animals and preserved in 10% formalin. The preserved livers from all animals were processed, embedded in paraffin, sectioned and stained with hematoxylin and eosin (H&E). The resulting slides were evaluated. Microscopic findings, when present, were graded subjectively on a scale of 0 to 4 according to the intensity and extent of change, where 0=finding not present; 1=minimal; 2=mild; 3=moderate and 4=marked. Additionally, quantitation of cholangiocyte (bile duct epithelial cells) mitotic nuclei was accomplished by counting the number of mitotic cells and the total number of cholangiocytes in 50 randomly selected high-powered (40× objective) fields.

The structures appear in SMILES notation. “And” between values parts separate entries of the source, which are not always exact repeats. Identical values can stand only once.

As to `CCCC[C@]1(CC)CS(=O)(=O)c2ccc(N(C)C)cc2[C@@H](c2cccc(NC(=O)N[C@@H]3O[C@H](COS(=O)(=O)[O-])[C@@H](O)[C@H](OCc4ccccc4)[C@H]3O)c2)[C@H]1O.CCO.O.[K+]` [LUM002, potassium((2R,3R,4S,5R,6R)-4-benzyloxy-6-{3-[3-((3S,4R,5R)-3-butyl-7-dimethylamino-3-ethyl-4-hydroxy-1,1-dioxo-2,3,4,5-tetrahydro-1H-benzo[b]thiepin-5-yl)-phenyl]-ureido}-3,5-dihydroxy-tetrahydro-pyran-2-ylmethyl)sulphate ethanolate, hydrate], in [1], the “Plasma Amylase” value is on record as “Neither LUM002 nor SC-435 cause a statistically significant changes” and the “Plasma Lipase” value is recorded as “statistically significant reductions”. The compound also came in with an AUCinf in [2] (male rat, IV bolus 2 mg/kg free acid) of 0.9 ng·h/mL. Besides, in data set [2] (rat, PO 20 mg/kg, 2 or 4 h after administration), the “plasma exposure, 3 female and 1 male animal out of 72” value fell in the range of 1 to 5 ng/mL. In addition, the “plasma exposure, all other animals” value in [2] (rat, PO 20 mg/kg, limit of quantitation 1 ng/mL) is recorded as < 1 ng/mL. Besides, the dose systemically absorbed in data set [2] (rats) was “Less than 2%”. The GLP-2 in plasma result with GLP-2 was “significant elevations”. The t1/2 in data set [3] (100 mg oral solution, fasting, individual subject) came out at 3.39 h. In addition, the dose systemically absorbed in [3] (healthy male subjects, 100 mg) is reported as “Less than 1%”. The “Baseline-corrected Percent Hemoglobin A1c (HbA1c)” value in the data set with Hemoglobin A1c (HbA1c) was “significant dose-dependent reductions”. Moreover, in the data set on plasma ALP, ASAT, ALAT, the “Plasma Alkaline Phosphatase (ALP)” value was “significant reductions” and the “Plasma Aspartate Aminotransferase (ASAT)” value is “statistically significant reduction”. The “Plasma bile acid levels” value in the data set on plasma bile acids (ZDF rats, 0.3, 1, 3, 10 or 30 mg/kg twice a day) is recorded as “decreased”. Besides, the “effect on fecal excretion of bile acids” value in data set [4] was “significantly increased”. In addition, the “Plasma Total Serum Bile Acids Concentrations” value with total serum bile acids is listed as “statistically significant reductions”.
As for `CCCC[C@]1(CC)CS(=O)(=O)c2cc(OC)c(OC)cc2[C@@H](c2ccccc2)N1` [Compound 264W94], the “elevation of fecal bile acid concentrations vs vehicle treated rats” value with fecal bile acids is reported as “up to 6.5 fold”.
Consider `CCCCC1(CCCC)CS(=O)(=O)c2ccc(N(C)C)cc2[C@@H](c2ccc(OCCCC[N+]34CCN(CC3)CC4)cc2)[C@H]1O.CS(=O)(=O)[O-]` [SC-435, 1-[4-[4-[(4R,5R)-3,3-dibutyl-7-(dimethylamino)-2,3,4,5-tetrahydro-4-hydroxy-1,1-dioxido-1-benzothiepin-5-yl]phenoxy]butyl]-4-aza-1-azoniabicyclo[2.2.2]octane methanesulfonate salt], for which, in [1], the “Plasma Amylase” value is reported as “Neither LUM002 nor SC-435 cause a statistically significant changes” and the “Plasma Lipase” value is reported as “statistically significant reductions”. For the same compound, in the data set on GLP-2, the GLP-2 in plasma entry is recorded as “significant elevations”. In addition, in data set [5] (pBDL rat livers, Day 14), the Hepatocyte necrosis result is “not present”; the “bile duct proliferation, mixed inflammatory cell infiltration, spindle cell proliferation vs untreated rat livers” value is “reduced incidence and intensity”. Besides, the “hepatic necrosis and inflammatory cell infiltration” value in data set [5] (pBDL rat livers, by 14 days) is “less hepatic necrosis and inflammatory cell infiltration”. For the same compound, in [5] (Day 14, AVG), the “Total number of cholangiocytes in 50 fields” value is on record as 533 and the “Total number of mitotic figures in 50 fields” value stood at 0. Moreover, the “Total number of mitotic figures in 50 fields” value in data set [5] (Day 14, individual rats) is reported as 0. For the same compound, the “Total number of cholangiocytes in 50 fields” value in data set [5] (Day 14, individual rats, methanesulfonate salt, 10 mg/kg) is 662 and 404. Moreover, the “mitotic figures in livers” value in data set [5] (pBDL rats, 14 days post surgery) is given as “No mitotic figures were observed”. In addition, the “morphologic features of liver injury associated cholestasis” value in [5] (partial bile duct ligation, rats) is “appeared to ameliorate or inhibit”. Further, the “Baseline-corrected Percent Hemoglobin A1c (HbA1c)” value in the data set on Hemoglobin A1c (HbA1c) is “significant dose-dependent reductions”. In addition, the “Plasma Alkaline Phosphatase (ALP)” value in the data set with plasma ALP, ASAT, ALAT is “significant reductions”. For the same compound, the “Plasma bile acid levels” value in the data set on plasma bile acids (ZDF rats, 1, 10 or 30 mg/kg twice a day) was “decreased”. The “Plasma Total Serum Bile Acids Concentrations” value in the data set on total serum bile acids is listed as “statistically significant reductions”.
